Data reported in patent publication US20250034136A1 (Nimbus Wadjet, Inc., priority 2023, published 2025).
Read-outs that look alike come from different tables or passages of the source.

Tests used:
[1] = molecular target: WRN (BV08), human Werner helicase (Uniprot Q14191, amino acids 517-1235 with L1074F point mutation) (Homo sapiens (Human), UniProt Q14191, L1074F); experiment: WRN (BV08) ADP-Glo assay; assay type: biochemical; conditions: class symbols A-E, read-out: ADP-Glo_hWRN_IC50
[2] = system: p21 induction in HCT116 cells; experiment: p21 induction in HCT116 cells; assay type: cell-based; conditions: Homo sapiens, HCT-116, 24 h, read-out: P21_EC50
Outline: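 HCT116 cells, 2,000/well, treated 24 h at 37 °C with 11-point compound dilutions in duplicate. Fixed, then immunostained for p21 and GAPDH and read by near-IR imaging at 800/700 nm. Normalized to DMSO (low) and reference WRN inhibitor (high) controls; EC50 from non-linear regression.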

[3] = HCT116 cells, 24 h compound incubation

WRN (BV08), human Werner helicase (Uniprot Q14191, amino acids 517-1235 with L1074F point mutation), sequence (Q14191 other isoform, or with tags, fused parts or gaps L1074F (already in the parent)): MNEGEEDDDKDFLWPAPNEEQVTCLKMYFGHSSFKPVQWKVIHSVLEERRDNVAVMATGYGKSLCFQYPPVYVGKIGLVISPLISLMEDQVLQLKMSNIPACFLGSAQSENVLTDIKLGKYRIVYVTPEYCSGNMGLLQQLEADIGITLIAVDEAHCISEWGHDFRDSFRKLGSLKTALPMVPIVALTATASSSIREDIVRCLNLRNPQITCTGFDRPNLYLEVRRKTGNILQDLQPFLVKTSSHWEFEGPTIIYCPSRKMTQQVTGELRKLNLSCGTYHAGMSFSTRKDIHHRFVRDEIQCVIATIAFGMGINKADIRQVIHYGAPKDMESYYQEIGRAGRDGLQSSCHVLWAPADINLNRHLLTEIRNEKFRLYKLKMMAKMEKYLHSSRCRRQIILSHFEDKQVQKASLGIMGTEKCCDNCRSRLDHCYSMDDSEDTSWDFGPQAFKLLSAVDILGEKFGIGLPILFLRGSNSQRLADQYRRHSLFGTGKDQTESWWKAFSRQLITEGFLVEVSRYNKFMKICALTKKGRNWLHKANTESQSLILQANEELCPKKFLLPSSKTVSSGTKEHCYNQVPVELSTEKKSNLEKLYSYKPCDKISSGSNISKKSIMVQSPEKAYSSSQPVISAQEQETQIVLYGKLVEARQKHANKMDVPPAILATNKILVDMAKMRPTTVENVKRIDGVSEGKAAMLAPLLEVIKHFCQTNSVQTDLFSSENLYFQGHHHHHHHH

Compound	IC50 [1] [nM]	EC50 [2, 3] [nM]	EC50 [2] [nM]
CCc1c(N2CCN(C(=O)c3ncnc(C)c3O)[C@H]3CC[C@@H]32)c(=O)c2nc(N(C)[C@H]3CC[C@H](O)C3)cnc2n1CC(=O)Nc1ccc(C(F)(F)F)cc1Cl [I-299, N-[2-chloro-4-(trifluoromethyl)phenyl]-2-{6-ethyl-7-[(1S,6S)-5-(5-hydroxy-6-methylpyrimidine-4-carbonyl)-2,5-diazabicyclo[4.2.0]octan-2-yl]-2-{[(1S,3S)-3-hydroxycyclopentyl](methyl)amino}-8-oxo-5H,8H-pyrido[2,3-b]pyrazin-5-yl}acetamide]	5 to 50	< 500	–
CCc1c(N2CCN(C(=O)c3ncnc(C)c3O)CC2)c(=O)c2nc(N3CCC4(CCC4)C3)cnc2n1CC(=O)Nc1ccc(C(F)(F)F)cc1Cl [I-151, 2-(2-{6-azaspiro[3.4]octan-6-yl}-6-ethyl-7-[4-(5-hydroxy-6-methylpyrimidine-4-carbonyl)piperazin-1-yl]-8-oxo-5H,8H-pyrido[2,3-b]pyrazin-5-yl)-N-[2-chloro-4-(trifluoromethyl)phenyl]acetamide]	5 to 50	2000 to 5000	–
CCc1c(N2CCN(C(=O)c3nocc3O)CC2)c(=O)c2ncc(C)nc2n1CC(=O)Nc1ccc(C(F)(F)F)cc1Cl [I-77, N-(2-chloro-4-(trifluoromethyl)phenyl)-2-(6-ethyl-7-(4-(4-hydroxyisoxazole-3-carbonyl)piperazin-1-yl)-3-methyl-8-oxopyrido[2,3-b]pyrazin-5(8H)-yl)acetamide]	5 to 50	> 5000	–
CCc1c(N2CCN(C(=O)c3ncnc(C)c3O)CC2)c(=O)c2nc(N(C)C)c(F)cc2n1CC(=O)Nc1ccc(C(F)(F)F)cc1Cl [I-109, N-(2-chloro-4-(trifluoromethyl)phenyl)-2-(6-(dimethylamino)-2-ethyl-7-fluoro-3-(4-(5-hydroxy-6-methylpyrimidine-4-carbonyl)piperazin-1-yl)-4-oxo-1,5-naphthyridin-1(4H)-yl)acetamide]	5 to 50	–	500 to 2000
CCO/C=C/c1cnc2c(n1)c(=O)c(N1CCN(C(=O)c3ncnc(C)c3O)CC1)c(CC)n2CC(=O)Nc1ccc(C(F)(F)F)cc1Cl [I-15, (E)-N-(2-chloro-4-(trifluoromethyl)phenyl)-2-(2-(2-ethoxyvinyl)-6-ethyl-7-(4-(5-hydroxy-6-methylpyrimidine-4-carbonyl)piperazin-1-yl)-8-oxopyrido[2,3-b]pyrazin-5(8H)-yl)acetamide]	5 to 50	< 500	–
CCc1c(N2CCN(C(=O)c3ncnc(C)c3O)CC2)c(=O)c2nc(Cl)cnc2n1CC(=O)Nc1ccc(C(F)(F)F)cc1Cl [I-19, N-(2-chloro-4-(trifluoromethyl)phenyl)-2-(2-chloro-6-ethyl-7-(4-(5-hydroxy-6-methylpyrimidine-4-carbonyl)piperazin-1-yl)-8-oxopyrido[2,3-b]pyrazin-5(8H)-yl)acetamide]	5 to 50	> 5000	–
CCc1c(N2CCN(C(=O)c3ncnc(C)c3O)CC2)c(=O)c2nc(N3CC(C)(O)C3)cnc2n1CC(=O)Nc1ccc(C(F)(F)F)cc1Cl [I-44, N-(2-chloro-4-(trifluoromethyl)phenyl)-2-(6-ethyl-2-(3-hydroxy-3-methylazetidin-1-yl)-7-(4-(5-hydroxy-6-methylpyrimidine-4-carbonyl)piperazin-1-yl)-8-oxopyrido[2,3-b]pyrazin-5(8H)-yl)acetamide]	5 to 50	> 5000	–
CCc1c(N2CC3COCC(C2)N3C(=O)c2ncnc(C)c2O)c(=O)c2nc(N(C)C)cnc2n1CC(=O)Nc1ccc(C(F)(F)F)cc1Cl [I-168, N-[2-chloro-4-(trifluoromethyl)phenyl]-2-[2-(dimethylamino)-6-ethyl-7-[9-(5-hydroxy-6-methylpyrimidine-4-carbonyl)-3-oxa-7,9-diazabicyclo[3.3.1]nonan-7-yl]-8-oxo-5H,8H-pyrido[2,3-b]pyrazin-5-yl]acetamide]	100 to 500	> 5000	–
CCc1c(N2CCN(C(=O)c3ncnc(C)c3O)CC2)c(=O)c2nc(N3CCCC34CC4)cnc2n1CC(=O)Nc1ccc(C(F)(F)F)cc1Cl [I-224, 2-(2-{4-azaspiro[2.4]heptan-4-yl}-6-ethyl-7-[4-(5-hydroxy-6-methylpyrimidine-4-carbonyl)piperazin-1-yl]-8-oxo-5H,8H-pyrido[2,3-b]pyrazin-5-yl)-N-[2-chloro-4-(trifluoromethyl)phenyl]acetamide]	5 to 50	2000 to 5000	–
CCc1c(N2CCN(C(=O)c3ncnc(C)c3O)CC2)c(=O)c2nc(N3CCNCC3)cnc2n1CC(=O)Nc1ccc(C(F)(F)F)cc1Cl [I-89, N-(2-chloro-4-(trifluoromethyl)phenyl)-2-(6-ethyl-7-(4-(5-hydroxy-6-methylpyrimidine-4-carbonyl)piperazin-1-yl)-8-oxo-2-(piperazin-1-yl)pyrido[2,3-b]pyrazin-5(8H)-yl)acetamide]	100 to 500	> 5000	–
CCc1c(N2CCN(C(=O)c3ncnc(C)c3O)CC2)c(=O)c2nc(CN3CCOCC3)cnc2n1CC(=O)Nc1ccc(C(F)(F)F)cc1Cl [I-49, N-(2-chloro-4-(trifluoromethyl)phenyl)-2-(6-ethyl-7-(4-(5-hydroxy-6-methylpyrimidine-4-carbonyl)piperazin-1-yl)-2-(morpholinomethyl)-8-oxopyrido[2,3-b]pyrazin-5(8H)-yl)acetamide]	50 to 100	> 5000	–
CCc1c(N2CCN(C(=O)c3ncnc(C)c3O)C[C@@H]2C)c(=O)c2nc(N3CCC3)cnc2n1CC(=O)Nc1ccc(C(F)(F)F)cc1Cl [I-187, 2-[2-(azetidin-1-yl)-6-ethyl-7-[(2S)-4-(5-hydroxy-6-methylpyrimidine-4-carbonyl)-2-methylpiperazin-1-yl]-8-oxo-5H,8H-pyrido[2,3-b]pyrazin-5-yl]-N-[2-chloro-4-(trifluoromethyl)phenyl]acetamide]	5 to 50	500 to 2000	–
CCc1c(N2CCN(C(=O)c3ncnc(C)c3O)[C@H]3CC[C@@H]32)c(=O)c2nc(N(C)C)cnc2n1CC(=O)Nc1ccc(S(F)(F)(F)(F)F)cc1Cl [I-200, N-[2-chloro-4-(pentafluoro-lambda6-sulfanyl)phenyl]-2-[2-(dimethylamino)-6-ethyl-7-[(1S,6S)-5-(5-hydroxy-6-methylpyrimidine-4-carbonyl)-2,5-diazabicyclo[4.2.0]octan-2-yl]-8-oxo-5H,8H-pyrido[2,3-b]pyrazin-5-yl]acetamide]	5 to 50	< 500	–
CCc1c(N2CCN(C(=O)c3ncc4c(c3O)CCO4)CC2)c(=O)c2ncc(C)nc2n1CC(=O)Nc1ccc(C(F)(F)F)cc1Cl [I-69, N-(2-chloro-4-(trifluoromethyl)phenyl)-2-(6-ethyl-7-(4-(4-hydroxy-2,3-dihydrofuro[2,3-c]pyridine-5-carbonyl)piperazin-1-yl)-3-methyl-8-oxopyrido[2,3-b]pyrazin-5(8H)-yl)acetamide]	5 to 50	> 5000	–
CCc1c(N2CCN(C(C)=O)CC2)c(=O)c2ncc(C)nc2n1CC(=O)Nc1ccc(C(F)(F)F)cc1Cl [I-5, 2-(7-(4-acetylpiperazin-1-yl)-6-ethyl-3-methyl-8-oxopyrido[2,3-b]pyrazin-5(8H)-yl)-N-(2-chloro-4-(trifluoromethyl)phenyl)acetamide]	100 to 500	> 5000	–
CCc1c(N2CCN(C(=O)c3ncnc(C)c3O)CC2)c(=O)c2nc(N(C)C)cnc2n1CC(=O)Nc1ccc(S(F)(F)(F)(F)F)cc1Cl [I-132, N-[2-chloro-4-(pentafluoro-lambda6-sulfanyl)phenyl]-2-[2-(dimethylamino)-6-ethyl-7-[4-(5-hydroxy-6-methylpyrimidine-4-carbonyl)piperazin-1-yl]-8-oxo-5H,8H-pyrido[2,3-b]pyrazin-5-yl]acetamide]	5 to 50	< 500	–
CCc1c(N2CCN(C(=O)c3ncnc(C)c3O)[C@H]3CC[C@@H]32)c(=O)c2nc(OC3CC3)cnc2n1CC(=O)Nc1ccc(C(F)(F)F)cc1Cl [I-102, N-(2-chloro-4-(trifluoromethyl)phenyl)-2-(2-cyclopropoxy-6-ethyl-7-((1S,6S)-5-(5-hydroxy-6-methylpyrimidine-4-carbonyl)-2,5-diazabicyclo[4.2.0]octan-2-yl)-8-oxopyrido[2,3-b]pyrazin-5(8H)-yl)acetamide]	≤ 5	< 500	–
CCc1c(N2CCN(C(=O)c3ncnc(C)c3O)[C@H]3CC[C@@H]32)c(=O)c2nc(N3CC[C@@H]4C[C@@H]43)cnc2n1CC(=O)Nc1ccc(C(F)(F)F)cc1Cl (single isomer, unassigned) [I-220]	≤ 5	< 500	–
CCc1c(N2CCN(C(=O)c3ncnc(C)c3O)[C@H]3CC[C@@H]32)c(=O)c2nc(N(C)C)cnc2n1CC(=O)Nc1ccc(OC)cc1Cl [I-289, N-(2-chloro-4-methoxyphenyl)-2-[2-(dimethylamino)-6-ethyl-7-[(1S,6S)-5-(5-hydroxy-6-methylpyrimidine-4-carbonyl)-2,5-diazabicyclo[4.2.0]octan-2-yl]-8-oxo-5H,8H-pyrido[2,3-b]pyrazin-5-yl]acetamide]	5 to 50	500 to 2000	–
CCc1c(C23CCN(C(=O)c4ncnc(C)c4O)CC2C3)c(=O)c2nc(N(C)C)cnc2n1CC(=O)Nc1ccc(C(F)(F)F)cc1Cl (stereo not shown) [I-229, N-[2-chloro-4-(trifluoromethyl)phenyl]-2-[2-(dimethylamino)-6-ethyl-7-[3-(5-hydroxy-6-methylpyrimidine-4-carbonyl)-3-azabicyclo[4.1.0]heptan-6-yl]-8-oxo-5H,8H-pyrido[2,3-b]pyrazin-5-yl]acetamide]	5 to 50	500 to 2000	–
